What follows are compounds tested on Blattalla germanica (assay: Test Example 4: filter paper with sucrose bait, Blattalla germanica). Settings: 500 ppm, 0.7 ml on filter paper; 2 male imagoes; after 6 days.
Assay type: in vivo
Protocol: A formulation of any one of the present compounds (2), (3) and (4) obtained according to Formulation Example 10 was diluted with water so that the active ingredient concentration was 500 ppm to obtain a test solution.
A filter paper having a diameter of 5.5 cm was spread on the bottom of a polyethylene cup having a diameter of 5.5 cm and 0.7 ml of the test solution was added dropwise onto the filter paper. As a bait 30 mg of sucrose was uniformly placed on the filter paper. Into the polyethylene cup, 2 male imagoes of Blattalla germanica were released and the cup was sealed with a lid. After 6 days, the number of surviving Blattalla germanica was examined and the death rate of the pest was calculated.

Row | Structure (SMILES) | pest death rate [%]
1 | CC(C)(C)c1cc(CSCCC(F)(F)F)no1 [present compound (2), 5-tert-butyl-3-[(3,3,3-trifluoropropylsulfanyl)methyl]isoxazole] | 100
2 | FC(F)(F)CCSCn1cnc(C(F)(F)F)c1 [present compound (3), 4-trifluoromethyl-1-[(3,3,3-trifluoropropylsulfanyl)methyl]-1H-imidazole] | 100
3 | CC(C)(C)n1cc(CSCCC(F)(F)F)cn1 [present compound (4), 1-tert-butyl-4-[(3,3,3-trifluoropropylsulfanyl)methyl]-1H-pyrazole] | 100
